Where two headings read alike, the source gives them in different places.
What was measured:
[1] = Midazolam pharmacokinetics; assay type: in vivo, human
[2] = cited from earlier work
[3] = tested on: organic anion transporting polypeptides (OATPs); settings: in vitro; cited from earlier work
[4] = assay type: in vivo, human; settings: for Increase of sunitinib exposure by grapefruit juice: model estimate; for AUC(0-t): AUC0–24 h
ABCG2 = settings: in vitro; cited from earlier work
[5] = Literature clinical pharmacokinetics of sunitinib; settings: follows from half-life ~50 h
ABCB1 = settings: in vitro; cited from earlier work
[6] = cited from earlier work; remark: listed apart in the source
[7] = cited from earlier work; remark: listed apart in the source
[8] = final population PK model, cancer patients
[9] = human, plasma, oral, sunitinib with grapefruit juice when simultaneously taken, mean (range)
[10] = sunitinib with grapefruit juice when simultaneously taken, mean (range)

Cc1ncc2n1-c1ccc(Cl)cc1C(c1ccccc1F)=NC2 [midazolam]
AUC(0-t) ([1]; human, plasma, po, 7.5 mg, Midazolam AUC0–24 h, without GJ, single oral 7.5 mg midazolam, mean (±SEM)): 122 ng·h/mL | Increase of midazolam exposure (AUC0–24 h) by GJ ([1]; second vs first PK day): ~ 50%

Cc1cn(-c2cc(NC(=O)c3ccc(C)c(Nc4nccc(-c5cccnc5)n4)c3)cc(C(F)(F)F)c2)cn1 [nilotinib]
Effect of grapefruit juice on drug exposure [2]: increase

CCN(CC)CCNC(=O)c1c(C)[nH]c(/C=C2\C(=O)Nc3ccc(F)cc32)c1C [sunitinib, Sunitinib malate]
Affinity for OATPs [3]: no affinity | Increase of sunitinib exposure by grapefruit juice ([4]; GJ consumed 7 h before the sunitinib dose): ~ 8.9% | Absorption lag time, estimate [4, 8]: 0.487 h | ka (absorption rate constant), estimate [4, 8]: 0.468 h⁻¹ | Cl/F (apparent clearance), estimate ([4]; final population PK model, cancer patients, oral sunitinib 25-50 mg once daily): 50.5 L/h | Tmax ([4]; human, plasma, oral): 8.2 h | Vd/F ([4]; human, plasma, oral): 3210 L | half-life ([4]; human, plasma, oral): 53 h | AUC(0-t) [4, 9]: 1240 ng·h/mL | AUC(0-t) ([4]; human, plasma, oral, sunitinib without grapefruit juice, steady state, mean (range)): 1120 ng·h/mL | Cmax [4, 9]: 14.4 ng/mL | Cmax ([4]; human, plasma, oral, sunitinib without grapefruit juice, mean (range)): 13 ng/mL | Increase of sunitinib exposure by grapefruit juice ([4]; sunitinib 24 h after last GJ consumption): ~ 5.3% | Increase of sunitinib exposure by grapefruit juice ([4]; sunitinib 72 h after last GJ consumption): ~ 1.3% | Increase of sunitinib exposure by grapefruit juice ([4]; sunitinib started 1 week after last GJ consumption): ~ 0.07% | T max [4, 10]: 8.2 (2.8–12.4) h | t 1/2 (elimination half-life) [4, 10]: 53 (12–107) h | Substrate of drug transporter ABCG2 (ABCG2): moderate substrate | Time to reach steady-state PK [5]: ~ 8 days | Substrate of drug transporter ABCB1 (ABCB1): moderate substrate | Apparent volume of distribution [6]: ~ 2,000 liters | Effect of food intake on pharmacokinetics [6]: does not affect | Interpatient variability in sunitinib clearance [6]: ~ 40% | half-life [6]: ~ 50 h | Protein binding in vitro [7]: extensively protein bound

From article PMC3043256 (Cancer Chemotherapy and Pharmacology, 2010)
